In article PMC10870048, “2,4‐Dihydroxybenzoic Acid, a Novel SA Derivative, Controls Plant Immunity via UGT95B17‐Mediated Glucosylation: A Case Study in Camellia Sinensis” (Advanced Science, 2023):

Test system: T1, UGT95B17
T1 construct: full-length ORF in pGEX-4T-1 (N-terminal GST tag of vector)
Assay: UDP-Glo glycosyltransferase assay
Assay type: biochemical, Camellia sinensis
Settings: UDP-glucose co-substrate, pH 7.5, 25 °C, 40 min; read-out: apparent KM

Row | Km | SMILES
1 | 0.81 ± 0.26 µM | O=C(O)c1ccc(O)cc1O [2,4-DHBA]
2 | 3.31 ± 0.58 µM | O=C(O)c1cccc(O)c1O [2,3-DHBA]
3 | 0.31 ± 0.11 µM | O=C(O)c1cc(O)ccc1O [2,5-DHBA]
